According to patent US20090181090A1, “Protein-Based Carrier System for Overcoming Resistance in Tumour Cells” (priority 2005, published 2009):
≈ marks a conversion by molar mass, not a printed value. Like-named read-outs stand apart in the source and are kept apart here.

What was measured:
[1] = system: UKF-NB3 Dxr-R. cells; test: MTT cytotoxicity test, doxorubicin-resistant neuroblastoma cells; type: cell-based, human; details: 5 days incubation
Description: To test the cytotoxicity of the doxorubicin nanoparticles (Dxr-NP) produced, as compared to a doxorubicin solution (Dxr-Soln) and a liposomal doxorubicin preparation (CAELYX®), the following cell lines were used:
doxorubicin-resistant cells of the human neuroblastoma cell line of the Universitätsklinikum Frankfurt (UKF-NB3 Dxr-R.)
To determine the cytotoxicity, the MTT test was used. In this test the viability of the cells in the presence of different concentrations of a substance is determined and is then compared with a cell control. From the results, the IC50 value (inhibitory concentration 50), i.e. the concentration of a substance at which 50% of the cells die, can be calculated. […] After dissolving the crystals with SDS/DMF solution, the colour intensity can be measured photometrically. […]
One column of the wells contained pure medium and corresponded to the blank value; in a second column the cells for the growth control (100% value) were cultivated. […] After a further incubation at 37° C. overnight, the colour crystals had dissolved completely, and the colour intensity in each well was measured photometrically at […]. By subtracting the blank value from the measured values and with reference to the control, the cell viability can be expressed in percent.

[2] = system: UKF-NB3 Par. cells; test: MTT cytotoxicity test, parental neuroblastoma cells; type: cell-based; details: Homo sapiens, UKF-NB-3, 120 h, 5 days incubation

## COc1cccc2c1C(=O)c1c(O)c3c(c(O)c1C2=O)C[C@@](O)(C(=O)CO)C[C@@H]3O[C@H]1C[C@H](N)[C@H](O)[C@H](C)O1 [Dxr-Soln, doxorubicin]
[1]
  IC50: 0.0535 µg/mL (≈ 0.0984 µM)
[1]; Homo sapiens, UKF-NB-3, 120 h, read-out: IC50
  IC50: 0.0535 µg/mL (≈ 0.0984 µM)
[2]
  IC50: 0.0016 µg/mL (≈ 0.00294 µM)
